Test results from PubChem BioAssay AID1259408 (Genetic Toxicology Data Bank (GENE-TOX), 2018).
Calls of active or inactive are those of the source. How the calls were made is not given here.

System: GENE-TOX genotoxicity assays, various organisms and cells
Assay: GENE-TOX mutagenicity studies
[1] = Species/Cell Type: Escherichia coli polA (W3119 vs P3478), Assay Type: Rec-assay, DNA effects (bacterial DNA repair), Assay Code: RE1T, Evaluation Type: Evaluation A (Pre-1980)
[2] = Species/Cell Type: Salmonella typhimurium (one or more of the five standard strains: TA98, TA100, TA1535, TA1537, and TA1538), Assay Type: Histidine reverse gene mutation, Ames assay, Assay Code: SAL-, Evaluation Type: Evaluation A (Pre-1980)

CC(CO)OS(C)(=O)=O (stereo unspecified)
mutagenic call (Species/Cell Type: Hordeum vulgare (barley), Assay Type: Chromosome aberrations, Assay Code: HOC+D, Dose Response: With dose response, Evaluation Type: Evaluation A (Pre-1980)): active; positive

Nc1ccc(-c2ccc(N)cc2)cc1
mutagenic call (Species/Cell Type: Drosophila melanogaster, Assay Type: Sex-linked recessive lethal gene mutation, Assay Code: SRL-, Evaluation Type: Evaluation A (Pre-1980)): inactive; negative | mutagenic call [1]: no conclusion | mutagenic call (Species/Cell Type: Fischer rat embryo (RLV/1706) cells, Assay Type: Cell transformation, viral enhanced, Assay Code: CTR+, Evaluation Type: Evaluation A (Pre-1980)): active; positive | mutagenic call (Species/Cell Type: Human diploid fibroblasts, Assay Type: Unscheduled DNA synthesis (UDS) in vitro, DNA effects, Assay Code: UDHT, Evaluation Type: Evaluation A (Pre-1980)): no conclusion | mutagenic call (Species/Cell Type: Human, Assay Type: Sister-chromatid exchange (SCE) in vitro, Assay Code: SC1+D*, Activation: With metabolic activation, Dose Response: With dose response, Evaluation Type: Evaluation B (Post-1980)): active; positive | mutagenic call (Species/Cell Type: Mammalian polychromatic erythrocytes, Assay Type: Micronucleus test, chromosome aberrations, Assay Code: MNT+, Evaluation Type: Evaluation A (Pre-1980)): active; positive | mutagenic call (Species/Cell Type: Mouse embryo (AKR/ME) cells, Assay Type: Cell transformation, Assay Code: CTK+, Evaluation Type: Evaluation A (Pre-1980)): active; positive | mutagenic call (Species/Cell Type: Mouse, Sex: Male, Assay Type: Sperm morphology, Assay Code: SPI-, Evaluation Type: Evaluation A (Pre-1980)): inactive; negative | call (Species/Cell Type: Nonhuman, Assay Type: In vivo carcinogenicity studies, Assay Code: CCG+, Evaluation Type: Evaluation A (Pre-1980)): active; positive | mutagenic call (Species/Cell Type: Nonhuman, Assay Type: Sister-chromatid exchange (SCE) in vitro, Assay Code: SC2+D*, Activation: With metabolic activation, Dose Response: With dose response, Evaluation Type: Evaluation B (Post-1980)): active; positive | mutagenic call (Species/Cell Type: Nonhuman, Assay Type: Sister-chromatid exchange (SCE) in vivo, Assay Code: SC3+, Evaluation Type: Evaluation B (Post-1980)): active; positive | mutagenic call (Species/Cell Type: Rat primary hepatocytes, Assay Type: Unscheduled DNA synthesis (UDS) in vitro, DNA effects, Assay Code: UDP+, Evaluation Type: Evaluation A (Pre-1980)): active; positive | mutagenic call (Species/Cell Type: Salmonella typhimurium (one or more of the five standard strains: TA98, TA100, TA1535, TA1537, and TA1538), Assay Type: Histidine reverse gene mutation, Ames assay, Assay Code: SAL+*, Activation: With metabolic activation, Evaluation Type: Evaluation A (Pre-1980)): active; positive | mutagenic call (Species/Cell Type: Syrian hamster embryo (SA7/SHE) cells, Assay Type: Cell transformation, viral enhanced, Assay Code: CT7+, Evaluation Type: Evaluation A (Pre-1980)): active; positive | mutagenic call (Species/Cell Type: Syrian hamster embryo (SHE) cells, Assay Type: Cell transformation, clonal assay, Assay Code: CTC+, Evaluation Type: Evaluation A (Pre-1980)): active; positive | mutagenic call (Species/Cell Type: Tradescantia species, Assay Type: Gene mutation, Assay Code: TRM+D, Dose Response: With dose response, Evaluation Type: Evaluation A (Pre-1980)): active; positive

CN(CCCCC(=O)OC[C@H](N)C(=O)O)N=O
mutagenic call (Species/Cell Type: Escherichia coli polA (W3110 vs P3478), Assay Type: Rec-assay, DNA effects (bacterial DNA repair), Assay Code: RE2T, Evaluation Type: Evaluation A (Pre-1980)): no conclusion | mutagenic call [1]: no conclusion

O=NN(CCCCO)CCCCO
mutagenic call (Species/Cell Type: Salmonella typhimurium (one or more of the five standard strains: TA98, TA100, TA1535, TA1537, and TA1538), Assay Type: Histidine reverse gene mutation, Ames assay, Assay Code: SALT, Evaluation Type: Evaluation A (Pre-1980)): no conclusion

CCN(Cc1cccc(S(=O)(=O)O)c1)c1ccc(C(=C2C=CC(=[N+](CC)Cc3cccc(S(=O)(=O)O)c3)C=C2)c2ccc(O)cc2S(=O)(=O)[O-])cc1
mutagenic call (Species/Cell Type: Bacillus subtilis (H17 vs M45), Assay Type: Rec-assay, spot test, DNA effects (bacterial DNA repair), Assay Code: REWT, Evaluation Type: Evaluation A (Pre-1980)): no conclusion | mutagenic call (Species/Cell Type: Bacillus subtilis (H17 vs M45T), Assay Type: Rec-assay, spot test, DNA effects (bacterial DNA repair), Assay Code: REXT, Evaluation Type: Evaluation A (Pre-1980)): no conclusion | mutagenic call (Species/Cell Type: Mammalian polychromatic erythrocytes, Assay Type: Micronucleus test, chromosome aberrations, Assay Code: MNT+, Evaluation Type: Evaluation B (Post-1980)): active; positive | mutagenic call (Species/Cell Type: Saccharomyces cerevisiae, Assay Type: Mitotic recombination or gene conversion, Assay Code: YEC-, Evaluation Type: Evaluation A (Pre-1980)): inactive; negative | mutagenic call [2]: inactive; negative

Oc1ccc2ncccc2c1
mutagenic call [2]: inactive; negative
